ChEMBL document CHEMBL3885861, “Open TG-GATES”

Organism: Rattus norvegicus
Assay: Open TG-GATES - Regimen: Single
Assay type: toxicity, organism-based, Sprague-Dawley
Design: regimen Single, gender Male, age 6 weeks
Conditions: in vivo, po, 0 mg/kg, route gavage, dose level Control; for APTT / Bas / Eos / Fbg / Hb / Ht / Lym / MCH / MCHC / MCV / Mono / Neu / PT / Plat / RBC / Ret / WBC: tissue Blood; for KIDNEY_L / KIDNEY_R / KIDNEY_TOTAL: tissue Kidney; for LIVER: tissue Liver; for A/G / ALP / ALT / AST / BUN / CRE / Ca / Cl / DBIL / GLC / IP / K / LDH / Na / PL / RALB / TBIL / TC / TG / TP / gamma-GTP: tissue Plasma

SMILES: CC(S)C(=O)NCC(=O)O (stereo unspecified) [TIOPRONIN]
- TERMINAL_BW (3 h): 208.8 g
- APTT (3 h): 22.5 s
- Bas (3 h): 0%
- Eos (3 h): 0.8%
- Fbg (3 h): 292.4 mg/dL
- Hb (3 h): 13.1 g/dL
- Ht (3 h): 40.4%
- Lym (3 h): 81.6%
- MCH (3 h): 20.2 pg
- MCHC (3 h): 32.5%
- MCV (3 h): 62.3 fL
- Mono (3 h): 1.4%
- Neu (3 h): 15.8%
- PT (3 h): 16.1 s
- Plat (3 h): 120.4 x10_4/uL
- RBC (3 h): 649.6 x10_4/ul
- Ret (3 h): 7.5%
- WBC (3 h): 75.2 x10_2/uL
- KIDNEY_L (3 h): 0.9 g
- KIDNEY_R (3 h): 0.9 g
- KIDNEY_TOTAL (3 h): 1.8 g
- LIVER (3 h): 9.1 g
- A/G (3 h): 1.2
- ALP (3 h): 2032.2 IU/L
- ALT (3 h): 46 IU/L
- AST (3 h): 80.4 IU/L
- BUN (3 h): 11.4 mg/dL
- CRE (3 h): 0.1 mg/dL
- Ca (3 h): 10.7 mg/dL
- Cl (3 h): 107 meq/L
- DBIL (3 h): 0.002 mg/dL
- GLC (3 h): 190.8 mg/dL
- IP (3 h): 7.7 mg/dL
- K (3 h): 4.1 meq/L
- LDH (3 h): 203.8 IU/L
- Na (3 h): 143.8 meq/L
- PL (3 h): 128.6 mg/dL
- RALB (3 h): 2.9 g/dL
- TBIL (3 h): 0.02 mg/dL
- TC (3 h): 70.8 mg/dL
- TG (3 h): 65.4 mg/dL
- TP (3 h): 5.4 g/dL
- gamma-GTP (3 h): 1.8 IU/L
- TERMINAL_BW (6 h): 208.1 g
- APTT (6 h): 21.5 s
- Bas (6 h): 0%
- Eos (6 h): 0.2%
- Fbg (6 h): 295.4 mg/dL
- Hb (6 h): 13 g/dL
- Ht (6 h): 39.8%
- Lym (6 h): 83%
- MCH (6 h): 21 pg
- MCHC (6 h): 32.8%
- MCV (6 h): 64.1 fL
- Mono (6 h): 1.8%
- Neu (6 h): 14.2%
- PT (6 h): 15.8 s
- Plat (6 h): 116.3 x10_4/uL
- RBC (6 h): 621 x10_4/ul
- Ret (6 h): 8.1%
- WBC (6 h): 116.1 x10_2/uL
- KIDNEY_L (6 h): 0.9 g
- KIDNEY_R (6 h): 1 g
- KIDNEY_TOTAL (6 h): 1.9 g
- LIVER (6 h): 9 g
- A/G (6 h): 1.2
- ALP (6 h): 1487.4 IU/L
- ALT (6 h): 39 IU/L
- AST (6 h): 69.6 IU/L
- BUN (6 h): 10.6 mg/dL
- CRE (6 h): 0.1 mg/dL
- Ca (6 h): 10.5 mg/dL
- Cl (6 h): 106.4 meq/L
- DBIL (6 h): 0.002 mg/dL
- GLC (6 h): 184.2 mg/dL
- IP (6 h): 8.8 mg/dL
- K (6 h): 4.4 meq/L
- LDH (6 h): 154.4 IU/L
- Na (6 h): 143.8 meq/L
- PL (6 h): 141.4 mg/dL
- RALB (6 h): 2.9 g/dL
- TBIL (6 h): 0.022 mg/dL
- TC (6 h): 80.2 mg/dL
- TG (6 h): 72.2 mg/dL
- TP (6 h): 5.3 g/dL
- gamma-GTP (6 h): 1.6 IU/L
